Results reported in US9357924B2, “Composition, method, system and kit for optical electrophysiology” (The Research Foundation of State University of New York, priority 2006, dated 2016).
“And” between values parts separate entries of the source, which are not always exact repeats. Equal values may be shown once.

Legend:
[1] = tested on: mouse heart cardiac tissue; experiment: Optical action potential recording in Langendorff-perfused mouse heart (Tyrode's solution); conditions: mean ± SD
Description: (§1) The dye testing experiments were performed on typical model animals: mice (n=6), rat (n=11), guinea pig (n=6), pig (n=13). All experimental protocols conformed to the Guide for the Care and Use of Laboratory Animals and were approved by the Committee for the Humane Use of Animal of the SUNY Upstate Medical University. Mice (C57BL/6, 20-25 g) were injected with ketamine (200 mg/kg IP), rats (Sprague Dawley, 300-400 g female) and guinea pigs were injected with heparin (550 U/100 g), and euthanized by sodium phentobarbital (1 ml/100 g for rats and 0.75 ml/100 g for guinea pigs). The heart was then immediately excised and placed in ice-cold cardioplegia solution (CPS) composed of (in mmol/l) 280 Glucose, 13.44 KCl, 12.6 NaHCO3, 34 Mannitol. […] Perfusion and superfusion temperatures were continuously monitored and kept at 36±1° C. by using two sets of glass heating coils and heated-refrigerated circulators. […]
(§2) After a 20-30 min stabilization period during which the perfusion flow and ECG was monitored, the excitation-contraction uncoupler diacetyl-monoxime (DAM) was added to the perfusate (15 mmol/l) to stop contractions of cardiac tissue. […]

rat heart cardiac tissue [2] = experiment: Optical action potential recording in Langendorff-perfused rat heart (Tyrode's solution); conditions: mean ± SD
Description: as §1, §2

[3] = tested on: guinea pig heart cardiac tissue; experiment: Optical action potential recording in Langendorff-perfused guinea pig heart (Tyrode's solution); conditions: mean ± SD
Description: as §1, §2

[4] = tested on: pig cardiac tissue (right free ventricular wall); experiment: Optical action potential recording in Tyrode-perfused pig right ventricular wall preparation; conditions: for ΔF/F (relative fluorescence, maximal fluorescence efficacy): pig tissue, Tyrode-perfused, epifluorescence; for ΔF/F (relative fluorescence): pig, transillumination mode, thick cardiac tissue ~10 mm
Description: The dye testing experiments were performed on typical model animals: mice (n=6), rat (n=11), guinea pig (n=6), pig (n=13). All experimental protocols conformed to the Guide for the Care and Use of Laboratory Animals and were approved by the Committee for the Humane Use of Animal of the SUNY Upstate Medical University. Mice (C57BL/6, 20-25 g) were injected with ketamine (200 mg/kg IP), rats (Sprague Dawley, 300-400 g female) and guinea pigs were injected with heparin (550 U/100 g), and euthanized by sodium phentobarbital (1 ml/100 g for rats and 0.75 ml/100 g for guinea pigs). The heart was then immediately excised and placed in ice-cold cardioplegia solution (CPS) composed of (in mmol/l) 280 Glucose, 13.44 KCl, 12.6 NaHCO3, 34 Mannitol. After removal of extraneous tissues, the aorta was cannulated and Langendorff perfusion was started with a standard oxygenated Tyrode's solution (composed of (in mmol/l) 130 NaCl, 24 NaHCO3, 1.2 NaH2PO4, 1.0 MgCl2, 5.6 Glucose, 4.0 KCl, 1.8 CaCl2; buffered to a pH of 7.4) at 80 mm Hg and 36° C. Young pigs (15-20 kg,) were heparinized (500 IU, IV) and subsequently anesthetized with sodium phentobarbital (35 mg/kg IV). The heart was rapidly removed and Langendorff-perfused with cold (4° C.) CPS. The right free ventricular wall was quickly excised, and the right coronary artery was cannulated. Non-perfused tissue was removed, leaving a preparation of typically 5×5 cm and a thickness of 8 mm. The preparation was stretched on a plastic frame and perfused with a standard oxygenated Tyrode's solution at 80 mm Hg and 36° C. Whole cannulated heart (mouse, rat or guinea pig) or stretched pig tissue was put into special transparent chamber and superfused with the same solution at a rate of 30-40 ml/min. Perfusion and superfusion temperatures were continuously monitored and kept at 36±1° C. by using two sets of glass heating coils and heated-refrigerated circulators. Electrodes were sutured to whole hearts or inserted into pig tissue to monitor ECG. All preparations were continuously paced at the frequency 6.7 Hz, 5 Hz, 3.3 Hz and 2 Hz for mouse, rat, guinea pig, and pig, respectively.
After a 20-30 min stabilization period during which the perfusion flow and ECG was monitored, the excitation-contraction uncoupler diacetyl-monoxime (DAM) was added to the perfusate (15 mmol/l) to stop contractions of cardiac tissue. After a 20 minute equilibration, the preparation was stained by injecting voltage-sensitive dye solution into the perfusion flow (a bolus injection near cannula).
Solid dyes were dissolved in DMSO to make 10-50 mM stock solution that was kept frozen. […]

blood-perfused pig heart = experiment: Optical mapping of blood-perfused Langendorff pig heart; conditions: for ΔF/F (relative fluorescence): blood perfusion
Description: Blood-perfused Langendorff preparation of pig heart was implemented. Briefly, approximately 1.5 liters of modified Tyrode's solution (37° C., composition in mmol/L: Na^+, 157; K^+, 4.7; Ca^2+, 1.5; Mg^2+, 0.7, H2PO4^−0.5, Cl^−137.6, HCO3^−28.0, glucose 11.0, dextran 4% and insulin 10 U) was infused in an external jugular vein, and blood-Tyrode's mixture was collected at equal rate from a carotid artery. The heart was perfused with blood-Tyrode mixture in a Langendorff apparatus. The blood-Tyrode mixture will be oxygenated (CO2 5%/02 95%), heated (37° C.) and filtered using a Liliput hollow fiber oxygenator (COBE Cardiovascular, Arvada, Co). Collector tubes were inserted into the right and left ventricles to collect all the blood coming out of the coronary sinus and Thebesian veins. Thereafter, the heart was “sealed” to ensure that all the outflow of perfused blood is collected for recirculation. The heart was placed in a warm bath with heated water-jacketed transparent glass wall and was superfused with an oxygenated, heated Tyrode solution. After a 20-30 min stabilization verified by a vigorous contraction and normal sinus rhythm, the excitation-contraction uncoupler diacetyl-monoxime (DAM) was added to the perfusate (15 mmol/l) to stop contractions. ECG was monitored throughout the experiment to ensure stable capture of the ventricles by the pacing electrode. […]
Blood-perfused pig heart imaging was done in a similar way. Briefly, the dye was excited with a 400-watt tungsten-halogen lamp (excitation filter, 650+/−20 nm) and the fluorescence was collected above 715 nm using a Computar objective lens (HG1208FCS_HSP, F0.8, focal length 12 mm,) and externally cooled CCD camera (Dalsa CA-D1-0128T, Ontario, Canada) at the frame rate of 400-800 fps and 12-bit resolution.
The acquired images were offline processed to improve their quality. The background autofluorescence (endogenous fluorescence recorded under the same conditions before dye injection) was subtracted from each frame to obtain the voltage-dependent optical signal. To allow temporal alignment and subsequent averaging of successive paced action potentials, the trigger for the pacing stimulus was recorded as a single pixel in the movie frames. […] Dye loading and washout dynamics were assessed from averaged sets of OP recordings (3-5 specimens). To facilitate comparison, fluorescence and OP signals were normalized to their peak values (defined as the difference between maximum and minimum values) in some figures.
For the dye loading dynamics, the time to reach peak values of background fluorescence (membrane voltage independent component of the dye molecules fluorescence), OP, and ΔF/F were determined by simple visual inspection of the dynamic plots. […]

[5] = tested on: mouse heart cardiac tissue; experiment: Dye washout dynamics of OP amplitude in mouse heart; conditions: mean ± SD
Description: as §1
(§3) The acquired images were offline processed to improve their quality. The background autofluorescence (endogenous fluorescence recorded under the same conditions before dye injection) was subtracted from each frame to obtain the voltage-dependent optical signal. To allow temporal alignment and subsequent averaging of successive paced action potentials, the trigger for the pacing stimulus was recorded as a single pixel in the movie frames. […]

rat heart cardiac tissue [6] = experiment: Dye washout dynamics of OP amplitude in rat heart; conditions: mean ± SD
Description: as §1, §3

[7] = tested on: guinea pig heart cardiac tissue; experiment: Dye washout dynamics of OP amplitude in guinea pig heart; conditions: mean ± SD
Description: as §1, §3

pig cardiac tissue = experiment: Dye washout dynamics of OP amplitude in pig cardiac tissue; conditions: mean ± SD
Description: as §1, §3

[8] = Absorbance spectra in ethanol; assay type: physicochemical
Description: Absorbance spectra were measured in ethanol (panel A), and a model membrane made of multilamellar lipid vesicles (MLV) composed of egg phosphatidyl choline (panel B). The absorbance spectra reveal single maxima that represent a high level of the dye purity and absence of different configurational isomers. The absorption maxima for JPW6003 in ethanol occurred at 603 nm. For the dye JPW 6033 all absorption maxima are shifted 20-40 nm to shorter wavelengths, but absorbance is 2-3 times higher. Though the long wavelength absorbance peaks range from 561 nm to 603 nm in ethanol, and 526 nm to 539 nm in MLV, in practical applications both dyes can be efficiently excited over a much broader range (500-700 nm), allowing one to optimize excitation for the dye in different tissues, including blood perfused tissue.

[9] = Voltage-dependent fluorescence response in voltage-clamped hemispherical lipid bilayer (HLB) model membrane
Description: Voltage-dependent spectra in model membranes were measured by a voltage-clamped hemispherical lipid bilayer (HLB) apparatus modified for near infrared fluorescence detection. In this experiment, light from a tungsten lamp is sent through a monochromator and then focused onto the bottom of the HLB, stained with dye from the external aqueous bathing solution. The monochromator is then scanned over the wavelength range of interest while a train of ±50 mV voltage steps are applied to the membrane at a frequency of 40 Hz and the modulation of the detected light signal is measured with a lockin amplifier. The transmitted light signal is collected at 180° from the incident light. Fluorescence is collected at 90° via fiber optic light guide through cutoff filters at 715 nm.

various cardiac tissues = experiment: Dye performance in various cardiac tissues compared with di-4-ANEPPS; conditions: in any of the tested species
Description: as §1, with “Mannitol. After removal of extraneous tissues, the aorta was cannulated and Langendorff perfusion was started with a standard oxygenated Tyrode's solution (composed of (in mmol/l) 130 NaCl, 24 NaHCO3, 1.2 NaH2PO4, 1.0 MgCl2, 5.6 Glucose, 4.0 KCl, 1.8 CaCl2; buffered to a pH of 7.4) at 80 mm Hg and 36° C. Young pigs (15-20 kg,) were heparinized (500 IU, IV) and subsequently anesthetized with sodium phentobarbital (35 mg/kg IV).” for “Mannitol.”

absorption maxima (excitation wavelength) [8] [nm]	Compound	ΔF/F (relative fluorescence, maximal fluorescence efficacy) [1] [%]	ΔF/F (relative fluorescence, maximal fluorescence efficacy) (rat heart cardiac tissue [2]) [%]	ΔF/F (relative fluorescence, maximal fluorescence efficacy) [3] [%]	ΔF/F (relative fluorescence, maximal fluorescence efficacy) [4]	ΔF/F (relative fluorescence) [4]	time of slow increase in total fluorescence and OP (dye loading) (blood-perfused pig heart; dye injected during recirculated-blood-perfusion) [h]	ΔF/F (relative fluorescence) (blood-perfused pig heart; pig, Tyrode's-perfused loading) [%]	ΔF/F (relative fluorescence) (blood-perfused pig heart; pig, blood-perfused loading (dye injected into blood flow)) [%]	steady-state level of deltaF/F during blood perfusion (blood-perfused pig heart; pig, regardless of loading in Tyrode's or directly into blood flow) [%]	50% washout time of OP amplitude [5] [h]	50% washout time of OP amplitude (rat heart cardiac tissue [6]) [h]	50% washout time of OP amplitude [7] [h]	50% washout time of OP amplitude (pig cardiac tissue) [h]	delta F/F (relative fluorescence) in a model membrane [9] [%]	OP amplitude higher than that of di-4-ANEPPS (various cardiac tissues)
603	CCCCN(CCCC)c1ccc2cc(/C=C/C=C/c3cc[n+](CCC[N+](C)(C)C)c4ccccc34)ccc2c1.[Br-].[Br-] [JPW6003, Di-4-ANBDQPQ]	9.1 ± 1.4	11.1 ± 1.6	11.3 ± 1.0	18.7% and 18.7 ± 1.1%	approximately 20%	~1	12	5.5 ± 1.5	~5	1.4 ± 0.2	2.50 ± 0.28	2.80 ± 0.31	3.33 ± 0.31	–	–
–	CCCCN(CCCC)c1ccc2cc(/C=C/c3cc[n+](CCCS(=O)(=O)[O-])cc3)ccc2c1 [di-4-ANEPPS]	–	–	–	–	–	–	–	–	–	–	–	–	–	9	–
–	Di-4-ANBDQBS [JPW6033]	10 ± 1.5	14 ± 1.5	12.5 ± 1.4	15 ± 1.0%	14 ± 1.1%	–	–	–	–	1.0 ± 0.1	1.8 ± 0.2	2.0 ± 0.2	2.50 ± 0.28	–	50-100%
